Data from patent US20090092662A1, “LIPOSOME FORMULATIONS OF BORONIC ACID COMPOUNDS” (priority 2007, published 2009).
Like-named read-outs stand apart in the source and are kept apart here.

Legend:
[1] = ITC drug binding study of complexing reagents to bortezomib; settings: pH 9.5, 100 mM glycine, 30° C., bortezomib titrated into complexing reagent
Protocol: The binding of the various complexing reagents to bortazomib were investigated by isothermal titration calorimetry (VP-ITC, MicroCal, Northampton, Mass.) under controlled parameters. […] The pH level was checked twice and adjustments were made as necessary to within 0.2 units. The solutions were degassed for 10-15 min. […] The experiments were conducted at 30° C. […] Data processing to generate the binding parameters was performed using the software program provided by the ITC manufacture (Microcal origin v5.0).

tumor lines = settings: range of tumor lines, NCI in vitro screen; cited from earlier work
[2] = tested on: human prostate cancer xenograft; settings: human prostate xenograft model; cited from earlier work
lung cancer xenograft = lung cancer xenograft model; cited from earlier work
[3] = cited from earlier work

K [1] [mol⁻¹]	SMILES	cytotoxicity (tumor lines)	antitumor activity [2]	antitumor activity (lung cancer xenograft)	maximum tolerated dose ([3]; intravenous bolus on days 1, 4, 8, and 11 of a 3-week cycle) [mg/m^2]	maximum tolerated dose ([3]; intravenously once or twice weekly, patients with solid tumors) [mg/m^2]
2366	OCC(O)CNCC(O)C(O)C(OC1OC(CO)C(O)C(O)C1O)C(O)CO (stereo not drawn) [Example 5]					
	CC(C)C[C@H](NC(=O)[C@H](Cc1ccccc1)NC(=O)c1cnccn1)B(O)O [bortezomib]	showed cytotoxicity against a range of tumor lines	had antitumor activity	had antitumor activity	1.56	1.3
